From US20250059172A1, “INDAZOLE COMPOUND AND PHARMACEUTICAL” (NIPPON SHINYAKU CO., LTD., priority 2021, published 2025)

How the values were obtained:
human mPGES-1 = human mPGES-1 (Homo sapiens (Human), UniProt O14684); assay: mPGES-1 inhibitory activity test; type: biochemical; details: for inhibition at 0.01 µM: 10 nM test compound; for inhibition at 0.1 µM: 100 nM test compound
How it was run: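 PGE2 formation was quantified by HTRF and reported as percent inhibition at 10 and 100 nM compound or as IC50. The 60-second reaction at 4° C used 1 μM PGH2, after a 20-minute 4° C preincubation of compound (1% DMSO final) with glutathione-supplemented (2.5 mM, pH 7.4) microsomes. The microsomes were from transiently transfected CHO-K1 cells expressing human mPGES-1.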

human A549 cells = assay: Inhibition test of PGE2 production using human A549 cells; type: cell-based; details: IL-1β stimulated A549 cells, 24 h, PGE2 by HTRF, read-out: A549 cell inhibition of PGE2 production IC50
How it was run: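 A549 cells were preincubated 60 min with compound in RPMI/3% FBS (0.1% DMSO final), then stimulated with IL-1β (5 ng/well) for 24 h at 37°C. PGE2 was measured by HTRF and PGF2a by EIA; activity was normalized to stimulated minus unstimulated controls, and IC50 derived.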

Sequence of human mPGES-1 (O14684 whole entry): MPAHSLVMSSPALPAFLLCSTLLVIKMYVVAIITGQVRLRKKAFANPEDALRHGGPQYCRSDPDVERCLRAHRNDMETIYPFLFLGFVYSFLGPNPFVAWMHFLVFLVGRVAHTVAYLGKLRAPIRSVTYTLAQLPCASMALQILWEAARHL

Row | inhibition at 0.01 µM (human mPGES-1) | inhibition at 0.1 µM (human mPGES-1) | IC50 (human A549 cells) | Structure (SMILES)
1 | 71% | – | 17.3 nM | CCn1ncc2c(NC(=O)c3cc(CNC(=O)C4(C(F)(F)F)CC4)ccc3Cl)cccc21 [Example 212, 2-Chloro-N-(1-ethyl-1H-indazol-4-yl)-5-[({[1-(trifluoromethyl)cyclopropyl]carbonyl}amino)methyl]benzamide]
2 | 74% | 90% | < 1 nM | O=C(Nc1cccc2c1cnn2-c1cccc(C(F)(F)F)c1)c1cc(CNC(=O)C2(C(F)(F)F)CC2)ccc1Cl [Example 220, 2-Chloro-5-[({[1-(trifluoromethyl)cyclopropyl]carbonyl}amino)methyl]-N-{1-[3-(trifluoromethyl)phenyl]-1H-indazol-4-yl}benzamide]
3 | 65% | 100% | 2.6 nM | O=C(Nc1cccc2c1cnn2-c1cccc(C(F)(F)F)c1)c1cc(CNC(=O)C2(O)CC2)ccc1Cl [Example 221, 2-Chloro-5-({[(1-hydroxycyclopropyl)carbonyl]amino}methyl)-N-{1-[3-(trifluoromethyl)phenyl]-1H-indazol-4-yl}benzamide]
4 | 61% | – | 3.3 nM | COCC(=O)NCc1ccc(Cl)c(C(=O)Nc2cccc3c2cnn3-c2cccc(C(F)(F)F)c2)c1 [Example 222, 2-Chloro-5-{[(methoxyacetyl)amino]methyl}-N-{1-[3-(trifluoromethyl)phenyl]-1H-indazol-4-yl}benzamide]
5 | 81% | – | 10 nM | O=C(Nc1cccc2c1cnn2-c1nccs1)c1cc(CNC(=O)C2CCCC2)ccc1Cl [Example 227, 2-Chloro-5-{[(cyclopentylcarbonyl)amino]methyl}-N-[1-(1,3-thiazol-2-yl)-1H-indazol-4-yl]benzamide]
6 | 77% | – | 12.9 nM | O=C(Nc1cccc2c1cnn2-c1nccs1)c1cc(CNC(=O)C2(C(F)(F)F)CC2)ccc1Cl [Example 228, 2-Chloro-N-[1-(1,3-thiazol-2-yl)-1H-indazol-4-yl]-5-[({[1-(trifluoromethyl)cyclopropyl]carbonyl}amino)methyl]benzamide]
7 | 88% | 98% | 0.3 nM | Cc1ccc(-n2ncc3c(NC(=O)c4cc(CNC(=O)C5(C(F)(F)F)CC5)ccc4Cl)cccc32)cc1C(F)(F)F [Example 256, 2-Chloro-N-{1-[4-methyl-3-(trifluoromethyl)phenyl]-1H-indazol-4-yl}-5-[({[1-(trifluoromethyl)cyclopropyl]carbonyl}amino)methyl]benzamide]
8 | 94% | 96% | 4.3 nM | Cc1ccc(-n2ncc3c(NC(=O)c4cc(CNC(=O)C5(O)CC5)ccc4Cl)cccc32)cc1C(F)(F)F [Example 257, 2-Chloro-5-({[(1-hydroxycyclopropyl)carbonyl]amino}methyl)-N-{1-[4-methyl-3-(trifluoromethyl)phenyl]-1H-indazol-4-yl}benzamide]
9 | 84% | 100% | 3.2 nM | COCC(=O)NCc1ccc(Cl)c(C(=O)Nc2cccc3c2cnn3-c2ccc(C)c(C(F)(F)F)c2)c1 [Example 258, 2-Chloro-5-{[(methoxyacetyl)amino]methyl}-N-{l-[4-methyl-3-(trifluoromethyl)phenyl]-1H-indazol-4-yl}benzamide]

More lines, now with the values behind:

Row | Structure (SMILES) | inhibition at 0.01 µM (human mPGES-1) | inhibition at 0.1 µM (human mPGES-1) | IC50 (human A549 cells)
10 | CC(C)n1ncc2c(NC(=O)c3cc(CNC(=O)C(C)(C)C)ccc3C(F)(F)F)cccc21 [Example 202, 5-{[(2,2-Dimethylpropanoyl)amino]methyl}-N-[1-(propan-2-yl)-1H-indazol-4-yl]-2-(trifluoromethyl)benzamide] | 59% | 79% | 20.2 nM
11 | Cn1ncc2c(NC(=O)c3cc(CNC(=O)C4CCCC4)ccc3Cl)cccc21 [Example 204, 2-Chloro-5-{[(cyclopentylcarbonyl)amino]methyl}-N-(1-methyl-1H-indazol-4-yl)benzamide] | 57% | 85% | 43.6 nM
12 | COCC(=O)NCc1ccc(Cl)c(C(=O)Nc2cccc3c2cnn3C)c1 [Example 207, 2-Chloro-5-{[(methoxyacetyl)amino]methyl}-N-(1-methyl-1H-indazol-4-yl)benzamide] | 59% | – | 303 nM
13 | Cn1ncc2c(NC(=O)c3cc(CNS(=O)(=O)C4CC4)ccc3Cl)cccc21 [Example 208, 2-Chloro-5-{[(cyclopropylsulfonyl)amino]methyl}-N-(1-methyl-1H-indazol-4-yl)benzamide] | 63% | 68% | 799 nM
14 | Cn1ncc2c(NC(=O)c3cc(CNC(=O)C(C)(C)C)ccc3C(F)(F)F)cccc21 [Example 209, 5-{[(2,2-Dimethylpropanoyl)amino]methyl}-N-(1-methyl-1H-indazol-4-yl)-2-(trifluoromethyl)benzamide] | 76% | 90% | 38.4 nM
15 | CCn1ncc2c(NC(=O)c3cc(CNC(=O)CC(C)(C)C)ccc3Cl)cccc21 [Example 210, 2-Chloro-5-{[(3,3-dimethylbutanoyl)amino]methyl}-N-(1-ethyl-1H-indazol-4-yl)benzamide] | 64% | – | 379 nM
16 | CCn1ncc2c(NC(=O)c3cc(CNC(=O)C4CCCC4)ccc3Cl)cccc21 [Example 211, 2-Chloro-5-{[(cyclopentylcarbonyl)amino]methyl}-N-(1-ethyl-1H-indazol-4-yl)benzamide] | 84% | – | 65.8 nM
17 | CCn1ncc2c(NC(=O)c3cc(CNC(=O)C(C)(C)C)ccc3C(F)(F)F)cccc21 [Example 217, 5-{[(2,2-Dimethylpropanoyl)amino]methyl}-N-(1-ethyl-1H-indazol-4-yl)-2-(trifluoromethyl)benzamide] | 79% | 80% | 14.7 nM
18 | O=C(Nc1cccc2c1cnn2-c1cccc(C(F)(F)F)c1)c1cc(CNC(=O)C2CCCC2)ccc1Cl [Example 219, 2-Chloro-5-{[(cyclopentylcarbonyl)amino]methyl}-N-{1-[3-(trifluoromethyl)phenyl]-1H-indazol-4-yl}benzamide] | 74% | 93% | 1 nM
19 | CC(C)(CO)C(=O)NCc1ccc(Cl)c(C(=O)Nc2cccc3c2cnn3-c2cccc(C(F)(F)F)c2)c1 [Example 223, 2-Chloro-5-{[(3-hydroxy-2,2-dimethylpropanoyl)amino]methyl}-N-{1-[3-(trifluoromethyl)phenyl]-1H-indazol-4-yl}benzamide] | 78% | – | 0.6 nM
20 | O=C(Nc1cccc2c1cnn2-c1cccc(C(F)(F)F)c1)c1cc(CNS(=O)(=O)C2CC2)ccc1Cl [Example 224, 2-Chloro-5-{[(cyclopropylsulfonyl)amino]methyl}-N-{1-[3-(trifluoromethyl)phenyl]-1H-indazol-4-yl}benzamide] | 83% | – | < 1 nM
21 | Cc1cc(-n2ncc3c(NC(=O)c4cc(CNC(=O)C5CCCC5)ccc4Cl)cccc32)ccn1 [Example 235, 2-Chloro-5-{[(cyclopentylcarbonyl)amino]methyl}-N-[1-(2-methylpyridin-4-yl)-1H-indazol-4-yl]benzamide] | 53% | 88% | 6.1 nM
22 | Cc1cncc(-n2ncc3c(NC(=O)c4cc(CNC(=O)C(C)(C)C)ccc4C(F)(F)F)cccc32)c1 [Example 246, 5-{[(2,2-dimethylpropanoyl)amino]methyl}-N-[1-(5-methylpyridin-3-yl)-1H-indazol-4-yl]-2-(trifluoromethyl)benzamide] | 78% | 89% | 3.5 nM
23 | Cc1ccc(-n2ncc3c(NC(=O)c4cc(CNS(=O)(=O)C5CC5)ccc4Cl)cccc32)nn1 [Example 253, 2-Chloro-5-{[(cyclopropylsulfonyl)amino]methyl}-N-[1-(6-methylpyridazin-3-yl)-1H-indazol-4-yl]benzamide] | 67% | 75% | 299 nM
24 | Cc1ccc(-n2ncc3c(NC(=O)c4cc(CNC(=O)CC(C)(C)C)ccc4Cl)cccc32)cc1C(F)(F)F [Example 254, 2-Chloro-5-{[(3,3-dimethylbutanoyl)amino]methyl}-N-{1-[4-methyl-3-(trifluoromethyl)phenyl]-1H-indazol-4-yl}benzamide] | 100% | 99% | 0.7 nM
25 | Cc1ccc(-n2ncc3c(NC(=O)c4cc(CNC(=O)C(C)(C)CO)ccc4Cl)cccc32)cc1C(F)(F)F [Example 259, 2-Chloro-5-{[(3-hydroxy-2,2-dimethylpropanoyl)amino]methyl}-N-{1-[4-methyl-3-(trifluoromethyl)phenyl]-1H-indazol-4-yl}benzamide] | 92% | 92% | 0.5 nM
26 | Cc1ccc(-n2ncc3c(NC(=O)c4cc(CNS(=O)(=O)C5CC5)ccc4Cl)cccc32)cc1C(F)(F)F [Example 260, 2-Chloro-5-{[(cyclopropylsulfonyl)amino]methyl}-N-{1-[4-methyl-3-(trifluoromethyl)phenyl]-1H-indazol-4-yl}benzamide] | 89% | 101% | 1 nM
27 | COc1ccc(-n2ncc3c(NC(=O)c4cc(CNC(=O)CC(C)(C)C)ccc4Cl)cccc32)cc1C(F)(F)F [Example 261, 2-Chloro-5-{[(3,3-dimethylbutanoyl)amino]methyl}-N-{1-[4-methoxy-3-(trifluoromethyl)phenyl]-1H-indazol-4-yl}benzamide] | 95% | 100% | 1.4 nM
